What all share (assay type): cell-based
The target in one assay is T1, TRPV1 channel (Homo sapiens, UniProt Q8NER1).
T1 construct: expressed in transfected cells; host or cells: CHO cells
As to the kind of experiment: TRPV1 currents in transfected CHO cells activated with capsaicin. The settings on record: 0.5 μM capsaicin. As to the method: Chinese hamster ovary (CHO) cells were grown in Dulbecco's modified Eagle's medium (DMEM) supplemented with 2 mM glutamine, 10% fetal calf serum and antibiotics. Briefly, 40,000 cells seeded on poly-D-lysine-coated glass coverslips (13 mm diameter) in a 24-multiwell plate were transfected with pIRES-CD8 (0.5 μg) as a marker for transfection, and with Kv7.2 (0.5 μg) and Kv7.3 (0.5 μg) or TRPV1 […] or TRPV6 […].
For electrophysiology, transfected cells were visualized approximately 40 hours following transfection, using anti-CD8 antibody-coated beads. Transfection was performed using Fugene 6 (Roche, Indianapolis Ind., USA) according to the manufacturer's protocol.
Voltage-clamp recordings in CHO cells were performed, using the whole-cell configuration of the patch-clamp technique. Signals were amplified using an Axopatch 200B patch-clamp amplifier (Molecular Devices, Sunnyvale, Calif.), sampled at 2 kHz and filtered at 800 Hz via a 4-pole Bessel low pass filter. Data were acquired using pClamp 9.2 software (Molecular Devices) and an IBM compatible Pentium IV computer in conjunction with a DigiData 1322A interface (Molecular Devices). The patch pipettes were pulled from borosilicate glass (Warner Instrument Corp, USA) with a resistance of 2-5 MΩ. […] Series resistances (3-13 MΩ) were compensated (75-90%) and periodically monitored. […]

The next assay has as its target T2, KCNQ2 mutant L197G (Homo sapiens, UniProt O43526, L197G).
T2 construct: expressed in transfected cells
The assay can be described thus: KCNQ2 S4 mutant L197G. The settings on record: 25 μM NH29 (25 M [sic]). From the text:
(§1) FIGS. 12A-F present the potentiating effect of NH29, an exemplary channel opener compound according to embodiments of the present invention, on selected KCNQ2 mutants. Shown are bar diagrams comparing the potentiating effect of NH29 on native KCNQ2 and KCNQ2 mutants, wherein the mutated amino acids are located at the S1-S2 helix region (FIG. 12A) or S4 helix region (FIG. 12D) and wherein the opener effect is expressed as percent of the control current in the absence of the opener. For comparison, marked as a green line, is the observed current increase of native KCNQ2 by NH29. FIGS. 12B 12C, 12E and 12F present representative traces recorded from CHO cell transfected with the KCNQ2 mutant S122A, S121A, L206C and R201A respectively, before and after external application of 25 μM of NH29 and wherein the membrane potential was stepped from −90 mV holding potential to −40 mV for 1.5 seconds pulse duration.
(§2) Voltage-clamp recordings in CHO cells were performed, using the whole-cell configuration of the patch-clamp technique. Signals were amplified using an Axopatch 200B patch-clamp amplifier (Molecular Devices, Sunnyvale, Calif.), sampled at 2 kHz and filtered at 800 Hz via a 4-pole Bessel low pass filter. […] Series resistances (3-13 MΩ) were compensated (75-90%) and periodically monitored.

The target of another assay is T3, KCNQ2 mutant R198A (Homo sapiens, UniProt O43526, R198A).
T3 construct: expressed in transfected cells
T3 sequence (O43526 whole entry R198A): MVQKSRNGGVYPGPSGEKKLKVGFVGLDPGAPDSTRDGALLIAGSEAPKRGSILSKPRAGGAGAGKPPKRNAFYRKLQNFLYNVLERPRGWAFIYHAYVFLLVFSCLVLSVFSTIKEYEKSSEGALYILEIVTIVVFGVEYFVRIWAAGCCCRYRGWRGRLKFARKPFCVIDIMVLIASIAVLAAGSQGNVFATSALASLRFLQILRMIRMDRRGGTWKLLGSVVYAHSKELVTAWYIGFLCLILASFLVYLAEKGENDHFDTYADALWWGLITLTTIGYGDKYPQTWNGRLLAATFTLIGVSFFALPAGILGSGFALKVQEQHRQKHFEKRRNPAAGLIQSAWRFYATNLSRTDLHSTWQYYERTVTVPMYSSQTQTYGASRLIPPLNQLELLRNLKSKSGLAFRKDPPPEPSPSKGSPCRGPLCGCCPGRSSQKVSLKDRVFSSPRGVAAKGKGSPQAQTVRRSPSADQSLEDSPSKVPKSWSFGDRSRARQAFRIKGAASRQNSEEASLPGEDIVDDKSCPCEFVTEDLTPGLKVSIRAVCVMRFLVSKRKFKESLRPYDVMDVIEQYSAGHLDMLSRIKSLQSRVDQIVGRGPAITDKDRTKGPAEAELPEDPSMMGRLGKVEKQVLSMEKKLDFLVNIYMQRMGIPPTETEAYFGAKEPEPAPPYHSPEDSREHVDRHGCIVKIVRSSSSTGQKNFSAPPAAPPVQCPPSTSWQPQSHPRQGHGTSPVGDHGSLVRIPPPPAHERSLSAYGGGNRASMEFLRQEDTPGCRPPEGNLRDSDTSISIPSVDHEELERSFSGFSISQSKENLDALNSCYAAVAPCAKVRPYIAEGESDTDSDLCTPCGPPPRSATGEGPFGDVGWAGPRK
As to the kind of experiment: KCNQ2 S4 mutant R198A. The conditions noted are these: 25 μM NH29 (25 M [sic]).
Description: as §1, §2

T1 sequence (Q8NER1 whole entry): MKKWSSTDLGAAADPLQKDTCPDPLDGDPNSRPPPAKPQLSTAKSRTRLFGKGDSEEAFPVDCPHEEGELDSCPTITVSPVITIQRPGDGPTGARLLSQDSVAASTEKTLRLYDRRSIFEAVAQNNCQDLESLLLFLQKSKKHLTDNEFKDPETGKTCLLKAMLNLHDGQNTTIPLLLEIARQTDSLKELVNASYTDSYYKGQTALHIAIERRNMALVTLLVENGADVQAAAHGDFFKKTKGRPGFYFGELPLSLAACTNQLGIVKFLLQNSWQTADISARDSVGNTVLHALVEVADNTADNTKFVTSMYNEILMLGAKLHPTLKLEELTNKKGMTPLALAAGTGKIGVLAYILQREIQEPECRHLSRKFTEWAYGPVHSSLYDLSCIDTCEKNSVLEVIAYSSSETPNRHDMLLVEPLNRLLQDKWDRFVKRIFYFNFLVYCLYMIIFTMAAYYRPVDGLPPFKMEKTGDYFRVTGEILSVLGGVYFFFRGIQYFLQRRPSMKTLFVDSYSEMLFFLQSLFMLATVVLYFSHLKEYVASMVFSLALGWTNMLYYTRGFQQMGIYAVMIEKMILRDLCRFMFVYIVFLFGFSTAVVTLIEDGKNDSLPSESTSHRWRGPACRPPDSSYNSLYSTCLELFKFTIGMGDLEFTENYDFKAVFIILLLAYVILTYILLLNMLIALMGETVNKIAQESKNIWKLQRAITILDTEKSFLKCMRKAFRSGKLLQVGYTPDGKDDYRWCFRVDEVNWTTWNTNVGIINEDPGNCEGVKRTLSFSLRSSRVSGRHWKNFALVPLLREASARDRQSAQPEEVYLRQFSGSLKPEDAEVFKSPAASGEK
T2 sequence (O43526 whole entry L197G): as the sequence (O43526 whole entry R198A) above, with L197G, A198R counted along it

Consider `O=C(Cc1cc([N+](=O)[O-])cc([N+](=O)[O-])c1Nc1c(Cl)cc([N+](=O)[O-])cc1Cl)NCCO` [NH29], for which, at TRPV1 channel (NH29 at 5-50 M as printed), the “inhibition of TRPV1 channels” value was “potently inhibited TRPV1 channels”. In addition, on TRPV1 channel (50 μM, reversible), the “inhibition of TRPV1 current” value was “almost completely”. In addition, the results for the “fold enhancement of current” value at KCNQ2 mutant L197G and on KCNQ2 mutant R198A were 1.5 fold and 1.6 fold, respectively.

For the origin of these results see US9403756B2, “N-phenyl anthranilic acid derivatives and uses thereof” (Ramot at Tel-Aviv University Ltd., priority 2007, dated 2016).
